From paper PMC5700161, “Structure of human immunoproteasome with a reversible and noncompetitive inhibitor that selectively inhibits activated lymphocytes” (Nature Communications, 2017)
“Also recorded” adds a separate entry of the source. Read-outs that look alike come from different tables or passages of the source.

Legend:
β1i = β1i (Homo sapiens, UniProt P28065); assay: IC50 against β1i of human immunoproteasome (Ac-PAL-AMC)
Method: (§2) IC50s of all compounds against β5i and β5c (Table 2) and against β1i, β2i, β1c, and β2c (Supplementary Table 1) were determined following reported methods[8].

β2i = β2i (Homo sapiens, UniProt P40306); assay: IC50 against β2i of human immunoproteasome (Z-VLR-AMC)
Method: as §2

β1c = β1c (Homo sapiens, UniProt P28072); assay: IC50 against β1c of human constitutive proteasome (Z-LLE-AMC)
Method: as §2

human β5i = human β5i (Homo sapiens, UniProt P20618+P28062); assay: IC50 determination against human β5i of i-20S; conditions: for reduction in potency against β5i: in comparing to PKS21221
Method: as §2

human β5c = human β5c (Homo sapiens, UniProt P20618+P28074); assay: IC50 determination against human β5c of c-20S
Method: as §2

β2c = β2c (Homo sapiens, UniProt Q99436); assay: IC50 against β2c of human constitutive proteasome (Z-VLR-AMC)
Method: as §2

β5c (c-20S) [1] = molecular target: T1, β5c (c-20S) (Homo sapiens, UniProt P20618+P28074); assay: Reversibility: dialysis of pre-incubated c-20S and inhibitor; format: biochemical; conditions: dialysis of pre-incubated mixture of c-20S and inhibitor
Source text: (§1) With increasing concentrations of PKS21004, both V max and K M decreased (Fig. 1d–g and Supplementary Fig. 1). […] This class thus joins a growing list of noncompetitive proteasome inhibitors[5],[30].

β5i (i-20S) = molecular target: T2, β5i (i-20S) (Homo sapiens, UniProt P20618+P28062); assay: Kinetics studies of modality of inhibition against β5i; format: biochemical
T2 construct: purchased Boston Biochem
Method: Data as in d are shown in double reciprocal plots in e, and data from f in g. […] Data are means ± SEM of three independent experiments […]
as §1
Supplementary Figure 11. Inhibition kinetics of PKS21221 against i-20S β5i. (A) Steady state velocities of the Ac-ANW-AMC hydrolysis at 10, 15, 25, 35 µM by i-20S β5i (0.4 nM) in the presence of PKS21221 at indicated concentrations were determined at 37 °C and plotted by RFU versus substrate concentration (A); values of KM, Ki and α were estimated by PRISM using equation V = (Vmax / (1 + I / (α*Ki))) * S / (KM * (1+ I / Ki) / (1 + I / (α*Ki)) + S); (B) Lineweaver-Burk plot of the data in (A). (C) Plot of KM versus concentrations of PKS21221 indicates a mixed type inhibition. (D) Plot of Vmax versus concentrations of PKS21221.
(1 picture or pasted object on this page, not shown here)

β5c (c-20S) [2] = molecular target: T1, β5c (c-20S); assay: Kinetics studies of modality of inhibition against β5c; format: biochemical
Source text: Data as in d are shown in double reciprocal plots in e, and data from f in g. […] Data are means ± SEM of three independent experiments
as §1

[3] = read-out: IC50 1i - PAL (β1i), substrate Ac-PAL-AMC
[4] = read-out: IC50 2i - VLR (β2i), substrate Z-VLR-AMC
[5] = read-out: IC50 1c - LLE (β1c), substrate Z-LLE-AMC
[6] = read-out: IC50 against human β5i
[7] = read-out: IC50 2c - VLR (β2c), substrate Z-VLR-AMC
[8] = fit to equation for noncompetitive inhibitors

SMILES | IC50 (β1i; [3]) [µM] | IC50 (β2i; [4]) [µM] | IC50 (β1c; [5]) [µM] | IC50 (β2c; [7]) [µM] | inhibitory activity against β5i (in words) (human β5i) | also measured
CC(C)(C)NC(=O)C[C@H](NC(=O)CCc1ccccc1)C(=O)NCCNC(=O)c1cccc2ccccc12 [PKS3080] | > 50 | > 50 | > 50 | > 50 | – | IC50 (human β5i; [6]): 0.37 µM; IC50 (human β5c; read-out: IC50 against human β5c): 1.22 µM
CC(C)(C)NC(=O)C[C@H](NC(=O)CCc1ccccc1)C(=O)NCCNC(=O)c1ccc(-c2ccccc2)cc1 [PKS21003] | – | – | – | – | inactive | IC50 (β1i): > 50 µM; IC50 (β2i): > 50 µM; IC50 (β1c): > 50 µM; IC50 (human β5i): > 100 µM; IC50 (human β5c): > 100 µM; inhibitory activity against β5c (in words) (human β5c): inactive; IC50 (β2c): > 50 µM
CC(C)(C)NC(=O)C[C@H](NC(=O)CCc1ccccc1)C(=O)NCCNC(=O)c1cccc(-c2ccccc2)c1 [PKS21004] | – | – | – | – | – | reversibility of β5c inhibition; β5c activity after dialysis (β5c (c-20S) [1]): reversibly inhibits; also recorded: fully restored; IC50 (β1i): > 50 µM; α for β5i (αi-20S) (β5i (i-20S)): ≈ 0.28; α for β5i (β5i (i-20S); as printed in legend of Fig. 1): 0.28; Ki (β5i (i-20S); [8]): 0.077 µM; modality of inhibition of β5i (β5i (i-20S); versus substrate): noncompetitively; α for β5c (αc-20S) (β5c (c-20S) [2]): 0.65 and ≈ 0.65; Ki (β5c (c-20S) [2]; [8]): 0.55 µM; modality of inhibition of β5c (β5c (c-20S) [2]; versus substrate): noncompetitively; IC50 (β2i): > 50 µM; IC50 (β1c): > 50 µM; Hill coefficient constant, inhibition of β5i (human β5i): ~ 1; IC50 (human β5i): 0.058 µM; Hill coefficient constant, inhibition of β5c (human β5c): ~ 1; IC50 (human β5c): 0.326 µM; IC50 (β2c): > 50 µM
CC(CNC(=O)c1cccc(-c2ccccc2)c1)NC(=O)[C@H](CC(=O)NC(C)(C)C)NC(=O)CCc1ccccc1 (some centres unmarked) [PKS21018] | > 50 | > 50 | > 50 | > 50 | – | –
CC(C)(C)NC(=O)C[C@H](NC(=O)CCc1ccccc1)C(=O)NCCNC(=O)c1ccc2ccccc2c1 [PKS21025] | > 50 | > 50 | > 50 | > 50 | – | selectivity for β5i over β5c (human β5i): 26 fold; improvement of potency against β5i (human β5i; relative to PKS3080): 3 fold
CC(C)(C)NC(=O)C[C@H](NC(=O)CCc1ccccc1)C(=O)NCCNC(=O)c1cccc(-c2ccc(F)cc2)c1 [PKS21026] | > 50 | > 50 | > 50 | > 50 | – | –
CC(C)(C)NC(=O)C[C@H](NC(=O)CCc1ccccc1)C(=O)NCCNC(=O)c1cccc(-c2ccc(C#N)cc2)c1 [PKS21028] | > 50 | > 50 | > 50 | > 50 | – | –
CC(C)(C)NC(=O)C[C@H](NC(=O)CCc1ccccc1)C(=O)NCCNC(=O)c1cc(-c2ccccc2F)ccc1F [PKS21187] | > 50 | > 50 | > 50 | > 50 | – | selectivity for β5i over β5c (human β5i): ~ 20 fold; IC50 (human β5i; [6]): 0.015 µM
CC(C)(C)NC(=O)C[C@H](NC(=O)CCc1ccccc1)C(=O)NCCNC(=O)c1cc(-c2cccc(F)c2)ccc1F [PKS21195] | > 50 | > 50 | > 50 | > 50 | – | –
CC(C)(C)NC(=O)C[C@H](NC(=O)CCc1ccccc1)C(=O)NCCNC(=O)c1cc(-c2ccccc2)ccc1F [PKS21196] | > 50 | > 50 | > 50 | > 50 | – | –
CC(C)(C)NC(=O)C[C@H](NC(=O)OC(C)(C)C)C(=O)NCCNC(=O)c1cc(-c2ccccc2F)ccc1F [PKS21277] | > 50 | > 50 | > 50 | > 50 | modestly potent | selectivity for β5i over β5c (human β5i): 36 fold
CC(C)(C)OC(=O)N[C@@H](CC(N)=O)C(=O)NCCNC(=O)c1cc(-c2ccccc2F)ccc1F [PKS21281] | > 50 | > 50 | > 50 | > 50 | abolished the inhibitory activities | inhibitory activity against β5c (in words) (human β5c): abolished the inhibitory activities
Cc1ccc(S(=O)(=O)N[C@@H](CC(N)=O)C(=O)NCCNC(=O)c2cc(-c3ccccc3F)ccc2F)cc1 [PKS21288] | > 50 | > 50 | > 50 | > 50 | eliminated inhibitory activity | inhibitory activity against β5c (in words) (human β5c): eliminated inhibitory activity
Cc1ccc(S(=O)(=O)NCC(=O)NCCNC(=O)c2cc(-c3ccccc3F)ccc2F)cc1 [PKS21289] | > 50 | > 50 | > 50 | > 50 | eliminated inhibitory activity | inhibitory activity against β5c (in words) (human β5c): eliminated inhibitory activity
Cc1ccc(S(=O)(=O)N[C@@H](C)C(=O)NCCNC(=O)c2cc(-c3ccccc3F)ccc2F)cc1 [PKS21290] | > 50 | > 50 | > 50 | > 50 | eliminated inhibitory activity | inhibitory activity against β5c (in words) (human β5c): eliminated inhibitory activity
CC(C)(C)NC(=O)C[C@H](NS(=O)(=O)C1CC1)C(=O)NCCNC(=O)c1cc(-c2ccccc2F)ccc1F [PKS21293] | > 50 | > 50 | > 50 | > 50 | – | selectivity for β5i over β5c (human β5i): 64 fold; reduction in potency against β5i (human β5i): 3.7 fold
CC(=O)N[C@@H](CC(=O)NC(C)(C)C)C(=O)NCCNC(=O)c1cc(-c2ccccc2F)ccc1F [PKS21294] | > 50 | > 50 | > 50 | > 50 | – | reduction in potency against β5i (human β5i): 150 fold; reduction in potency against β5c (human β5c; in comparing to PKS21221): 120 fold
